In patent US20190030046A1, “USE OF PURE COMPOUNDS EXTRACTED FROM ANTRODIA CAMPHORATA” (priority 2016, published 2019):

Experiments:
G6-Pase = assay: Semiquantitative RT-PCR in liver tissue: G6-Pase; assay type: in vivo, C57BL/6J mice; conditions: vs HF, 4 weeks
Experimental: (§1) The difference indicates the daily food intake.
(§2) Total RNA from liver tissue was isolated with a Trizol Reagent (Molecular Research Center, Inc., Cincinnati, Ohio, USA) according to the manufacturer's instructions. The integrity of the extracted total RNA was examined by 2% agarose gel electrophoresis, and the RNA concentration was determined by […] ultraviolet (UV) light absorbency at 260 nm and 280 nm (Spectrophotometer U-2800A, Hitachi). The total RNA (1 μg) was reverse transcribed to cDNA, and 5 μL Moloney murine leukemia virus reverse transcriptase (TEpicentre, Madison, Wis., USA). The PCR was performed in a final 25 μL containing 1 U Blend Taq-Plus (TOYOBO, Japan), 10 μL of the RT cDNA product, 10 μM of each forward (F) and reverse (R) primer, 75 mM Tris-HCL (pH 8.3) containing 1 mg/L Tween 20 (pH 8.3, also known as polyoxyethylene sorbitan monolaurate), 2.5 mM dNTP (deoxy-ribonucleoside triphosphate), and 2 mM MgCl2 (magnesium chloride). The PCR products were analyzed by 2% agarose gel and stained with ethidium bromide.

SREBP-1c = assay: Semiquantitative RT-PCR in liver tissue: SREBP-1c; assay type: in vivo, C57BL/6J mice; conditions: vs HF, 4 weeks
Experimental: as §1, §2

[1] = HFD-induced diabetic mice: fasting blood glucose and biochemical indexes; conditions: 4 weeks; for Blood glucose: 12 h fasted HFD mice; for Plasma FFA / Insulin / Leptin / TC / TG: HFD mice; for Insulin / Leptin: blood; for TC / TG: plasma
Experimental: The control group and HFD group contained 10% and 45% fat intake, respectively. The HFD mice were subdivided into 6 groups (9 per group) followed by 8-week induction. […] During the experiment, all mice were fasted overnight, and blood samples were collected from the retro-orbital sinus. Following four-week treatment and feeding, the food was removed, and the mice were fasted for 12 h and then sacrificed. Tissue samples required were collected from the mice and weighted. Some of the tissue samples were immediately stored at −80° C. and frozen for subsequent target gene analysis. Plasma samples were collected via centrifugation of whole blood at 1600×g for 15 min at 4° C., followed by plasma separation within 30 min. Some plasma samples obtained were used for TG and TC analysis. The metabolic parameters, including body weight, weight gain, and food intake, were performed as follows. Body weight was daily measured throughout the study. Body weight gain is considered as the difference between one day and the next day. The total weight of food intake was daily measured, followed by weighing the amount of remaining feed after 24 h. The difference indicates the daily food intake.
One part of the forgoing blood samples collected from the retro-orbital sinus of 12 h fasted mice was immediately used for analysis of glucose levels. The other part was used for analysis of blood TG, TC, free fatty acids, blood insulin, leptin, and adiponectin levels. Blood glucose levels were determined by a glucose analyzer (Model 1500 sidekick glucose analyzer, YSI). Plasma triglycerides (TG), total cholesterol (TC), and free fatty acids (FFA) were determined using commercial kits in accordance with manufacturer's instructions (Triglycerides-E test, Cholesterol-E test, and FFA-C test; Wako Pure Chemical, Osaka, Japan). Insulin and leptin levels were measured by enzyme-linked immunosorbent assay (ELISA) (mouse insulin ELISA kit, Mercodia, Uppsala, Sweden; mouse leptin ELISA kit, Morinaga, Yokohama, Japan).

C2C12 myoblasts = assay: MTT test; assay type: cell-based; conditions: dose of 1 to 25 μg/mL
[2] = HFD-induced diabetic mice: absolute tissue weight, body weight, food intake; assay type: in vivo, C57BL/6J mice; conditions: 4 weeks; for Absolute tissue weight: Visceral fat: EWAT plus RWAT
Excerpt: as §1

11β-HSD1 = assay: Semiquantitative RT-PCR in liver tissue: 11β-HSD1; assay type: in vivo, C57BL/6J mice; conditions: vs HF, 4 weeks
Experimental: as §1, §2

C=C(CC[C@@H](C(=O)O)[C@H]1CC[C@@]2(C)C3=CC[C@H]4C(C)(C)[C@@H](O)CC[C@]4(C)C3=CC[C@]12C)C(C)C [TT, dehydroeburicoic acid]
G6-Pase mRNA expression level in liver (G6-Pase; HF+TT1, 10 mg/kg/day oral): decreased | G6-Pase mRNA expression level in liver (G6-Pase; HF+TT2, 20 mg/kg/day oral): decreased | G6-Pase mRNA expression level in liver (G6-Pase; HF+TT3, 40 mg/kg/day oral): decreased | SREBP-1c mRNA expression level in liver (SREBP-1c; HF+TT1, 10 mg/kg/day oral): decreased | SREBP-1c mRNA expression level in liver (SREBP-1c; HF+TT2, 20 mg/kg/day oral): decreased | SREBP-1c mRNA expression level in liver (SREBP-1c; HF+TT3, 40 mg/kg/day oral): decreased | Blood glucose ([1]; HF+TT1, 10 mg/kg/day oral): 90.44 mg/dL | Blood glucose ([1]; HF+TT2, 20 mg/kg/day oral): 82.89 mg/dL | Blood glucose ([1]; HF+TT3, 40 mg/kg/day oral): 77.78 mg/dL | Plasma FFA ([1]; HF+TT1, 10 mg/kg/day oral): 0.95 meq/L | Plasma FFA ([1]; HF+TT2, 20 mg/kg/day oral): 0.87 meq/L | Plasma FFA ([1]; HF+TT3, 40 mg/kg/day oral): 0.81 meq/L | Insulin ([1]; HF+TT1, 10 mg/kg/day oral): 2.982 µg/L | Leptin ([1]; HF+TT1, 10 mg/kg/day oral): 9.827 ng/mL | Insulin ([1]; HF+TT2, 20 mg/kg/day oral): 2.625 µg/L | Leptin ([1]; HF+TT2, 20 mg/kg/day oral): 8.468 ng/mL | Insulin ([1]; HF+TT3, 40 mg/kg/day oral): 2.190 µg/L | Leptin ([1]; HF+TT3, 40 mg/kg/day oral): 6.439 ng/mL | TC ([1]; HF+TT1, 10 mg/kg/day oral): 120.55 mg/dL | TG ([1]; HF+TT1, 10 mg/kg/day oral): 84.85 mg/dL | TC ([1]; HF+TT2, 20 mg/kg/day oral): 114.93 mg/dL | TG ([1]; HF+TT2, 20 mg/kg/day oral): 83.63 mg/dL | TC ([1]; HF+TT3, 40 mg/kg/day oral): 112.46 mg/dL | TG ([1]; HF+TT3, 40 mg/kg/day oral): 82.31 mg/dL | toxicity to C2C12 myoblasts in MTT test (C2C12 myoblasts): non-toxic | Absolute tissue weight: Visceral fat ([2]; HF+TT1, 10 mg/kg/day oral): 1142.9 mg | Absolute tissue weight: Visceral fat ([2]; HF+TT2, 20 mg/kg/day oral): 1116.2 mg | Absolute tissue weight: Visceral fat ([2]; HF+TT3, 40 mg/kg/day oral): 979.3 mg | Absolute tissue weight: Brown adipose tissue (BAT) ([2]; HF+TT1, 10 mg/kg/day oral): 228.6 mg | Absolute tissue weight: Epididymal white adipose tissue (EWAT) ([2]; HF+TT1, 10 mg/kg/day oral): 798.9 mg | Absolute tissue weight: Liver ([2]; HF+TT1, 10 mg/kg/day oral): 848.3 mg | Absolute tissue weight: Mesenteric white adipose tissue (MWAT) ([2]; HF+TT1, 10 mg/kg/day oral): 361.3 mg | Absolute tissue weight: Retroperitoneal white adipose tissue (RWAT) ([2]; HF+TT1, 10 mg/kg/day oral): 343.9 mg | Absolute tissue weight: Spleen ([2]; HF+TT1, 10 mg/kg/day oral): 77.7 mg | Final body weight ([2]; HF+TT1, 10 mg/kg/day oral): 27.52 g | Food intake ([2]; HF+TT1, 10 mg/kg/day oral): 2.21 g/day/mouse | Weight gain ([2]; HF+TT1, 10 mg/kg/day oral): 2.24 g | Absolute tissue weight: Brown adipose tissue (BAT) ([2]; HF+TT2, 20 mg/kg/day oral): 197.3 mg | Absolute tissue weight: Epididymal white adipose tissue (EWAT) ([2]; HF+TT2, 20 mg/kg/day oral): 784.3 mg | Absolute tissue weight: Liver ([2]; HF+TT2, 20 mg/kg/day oral): 841.8 mg | Absolute tissue weight: Mesenteric white adipose tissue (MWAT) ([2]; HF+TT2, 20 mg/kg/day oral): 340.9 mg | Absolute tissue weight: Retroperitoneal white adipose tissue (RWAT) ([2]; HF+TT2, 20 mg/kg/day oral): 331.9 mg | Absolute tissue weight: Spleen ([2]; HF+TT2, 20 mg/kg/day oral): 81.5 mg | Final body weight ([2]; HF+TT2, 20 mg/kg/day oral): 26.47 g | Food intake ([2]; HF+TT2, 20 mg/kg/day oral): 2.16 g/day/mouse | Weight gain ([2]; HF+TT2, 20 mg/kg/day oral): 0.89 g | Absolute tissue weight: Brown adipose tissue (BAT) ([2]; HF+TT3, 40 mg/kg/day oral): 198.1 mg | Absolute tissue weight: Epididymal white adipose tissue (EWAT) ([2]; HF+TT3, 40 mg/kg/day oral): 667.8 mg | Absolute tissue weight: Liver ([2]; HF+TT3, 40 mg/kg/day oral): 802.8 mg | Absolute tissue weight: Mesenteric white adipose tissue (MWAT) ([2]; HF+TT3, 40 mg/kg/day oral): 304.6 mg | Absolute tissue weight: Retroperitoneal white adipose tissue (RWAT) ([2]; HF+TT3, 40 mg/kg/day oral): 311.4 mg | Absolute tissue weight: Spleen ([2]; HF+TT3, 40 mg/kg/day oral): 82.3 mg | Final body weight ([2]; HF+TT3, 40 mg/kg/day oral): 26.53 g | Food intake ([2]; HF+TT3, 40 mg/kg/day oral): 2.07 g/day/mouse | Weight gain ([2]; HF+TT3, 40 mg/kg/day oral): 0.83 g | 11β-HSD1 mRNA expression level in liver (11β-HSD1; HF+TT1, 10 mg/kg/day oral): decreased | 11β-HSD1 mRNA expression level in liver (11β-HSD1; HF+TT2, 20 mg/kg/day oral): decreased | 11β-HSD1 mRNA expression level in liver (11β-HSD1; HF+TT3, 40 mg/kg/day oral): decreased
